In patent US20110098304A1, “Small molecule inhibitors of PARP activity” (priority 2009, published 2011):
pIC50: −log10 of the molar value.

Biological target: T1, human PARD-1 (Poly (ADP-Ribose) Polymerase-1) (Homo sapiens, UniProt P09874)
T1 construct: purchased Trevigen Inc., Gaithersburg, Md
Test: Poly (ADP-Ribose) Polymerase-1 in vitro enzyme assay (Universal Colorimetric Assay Kit, Trevigen)
Format: biochemical
Conditions: letter codes; read-out: extent of inhibition of PARP activity (IC50, micromolar)
Protocol: Poly (ADP-Ribose) Polymerase-1 (PARD-1) In Vitro Enzyme Assay: Compounds were screened for inhibitory activity against human PARD-1 in vitro using the Universal Colorimetric PARD Assay Kit (Trevigen Inc., Gaithersburg, Md.) as directed by the supplier. Compounds are assayed in duplicate in 0.5% DMSO final concentration, negative control is no enzyme, while positive control is DMSO vehicle alone. IC50 determinations are made using Microsoft Excel. For all cell assays, compounds are added to cells in 5% DMSO/PBS for a final concentration of 0.5% DMSO.

T1 sequence (P09874 whole entry): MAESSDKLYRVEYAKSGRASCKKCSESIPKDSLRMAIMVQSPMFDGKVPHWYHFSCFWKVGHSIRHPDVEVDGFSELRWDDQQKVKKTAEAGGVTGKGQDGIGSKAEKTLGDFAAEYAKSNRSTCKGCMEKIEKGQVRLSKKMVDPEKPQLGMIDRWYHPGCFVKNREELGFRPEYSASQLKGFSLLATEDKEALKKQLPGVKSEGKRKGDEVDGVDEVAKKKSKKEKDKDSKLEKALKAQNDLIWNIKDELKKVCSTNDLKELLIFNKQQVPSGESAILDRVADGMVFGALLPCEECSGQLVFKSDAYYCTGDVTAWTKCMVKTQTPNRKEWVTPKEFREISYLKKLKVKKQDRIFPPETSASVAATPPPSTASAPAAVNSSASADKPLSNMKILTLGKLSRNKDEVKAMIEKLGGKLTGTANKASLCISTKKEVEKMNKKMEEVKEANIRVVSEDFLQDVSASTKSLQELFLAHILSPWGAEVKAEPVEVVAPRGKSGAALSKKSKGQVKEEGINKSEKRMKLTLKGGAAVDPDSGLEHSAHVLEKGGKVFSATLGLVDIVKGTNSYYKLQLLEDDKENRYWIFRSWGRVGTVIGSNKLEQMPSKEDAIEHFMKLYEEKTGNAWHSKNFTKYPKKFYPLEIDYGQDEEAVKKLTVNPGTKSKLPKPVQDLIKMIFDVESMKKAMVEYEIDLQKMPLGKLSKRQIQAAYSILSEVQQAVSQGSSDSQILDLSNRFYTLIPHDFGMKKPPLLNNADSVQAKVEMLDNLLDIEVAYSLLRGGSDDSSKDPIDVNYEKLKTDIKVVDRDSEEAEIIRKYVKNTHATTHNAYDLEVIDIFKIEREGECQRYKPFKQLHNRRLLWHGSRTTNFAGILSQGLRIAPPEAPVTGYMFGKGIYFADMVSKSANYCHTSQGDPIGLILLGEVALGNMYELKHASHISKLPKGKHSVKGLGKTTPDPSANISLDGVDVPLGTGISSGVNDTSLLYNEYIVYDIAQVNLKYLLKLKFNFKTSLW

pIC50 | SMILES
6.00 to 7.00 | CN1CCN(c2ccc(-c3n[nH]c(=O)c4ccccc34)cc2NC(=O)Nc2ccc(F)cc2)CC1 [1-(4-fluorophenyl)-3-(2-(4-methylpiperazin-1-yl)-5-(4-oxo-3,4-dihydrophthalazin-1-yl)phenyl)urea]
6.00 to 7.00 | CN1CCN(c2ccc(-c3n[nH]c(=O)c4ccccc34)cc2NC(=O)NC2CCCCC2)CC1 [1-cyclohexyl-3-(2-(4-methylpiperazin-1-yl)-5-(4-oxo-3,4-dihydrophthalazin-1-yl)phenyl)urea]
6.00 to 7.00 | CN1CCN(c2ccc(-c3n[nH]c(=O)c4ccccc34)cc2NC(=O)NC2CCCC2)CC1 [1-cyclopentyl-3-(2-(4-methylpiperazin-1-yl)-5-(4-oxo-3,4-dihydrophthalazin-1-yl)phenyl)urea]
5.30 to 6.00 | CCNC(=O)Nc1cc(-c2n[nH]c(=O)c3ccccc23)ccc1N1CCN(C)CC1 [1-ethyl-3-(2-(4-methylpiperazin-1-yl)-5-(4-oxo-3,4-dihydrophthalazin-1-yl)phenyl)urea]
6.00 to 7.00 | CNC(=O)Nc1cc(-c2n[nH]c(=O)c3ccccc23)ccc1N1CCN(C)CC1 [1-methyl-3-(2-(4-methylpiperazin-1-yl)-5-(4-oxo-3,4-dihydrophthalazin-1-yl)phenyl)urea]
6.00 to 7.00 | CN1CCN(c2ccc(-c3n[nH]c(=O)c4ccccc34)cc2NC(=O)NC(C)(C)C)CC1 [1-tert-butyl-3-(2-(4-methylpiperazin-1-yl)-5-(4-oxo-3,4-dihydrophthalazin-1-yl)phenyl)urea]
7.00 to 9.00 | Nc1cc(-c2n[nH]c(=O)c3ccccc23)ccc1N1CCN(CC(=O)O)CC1 [2-(4-(2-amino-4-(4-oxo-3,4-dihydrophthalazin-1-yl)phenyl)piperazin-1-yl)acetic acid]
6.00 to 7.00 | CN1CCN(c2ccc(-c3n[nH]c(=O)c4ccccc34)cc2NC(=O)CCl)CC1 [2-chloro-N-(2-(4-methylpiperazin-1-yl)-5-(4-oxo-3,4-dihydrophthalazin-1-yl)phenyl)acetamide]
7.00 to 9.00 | N#CCCN1CCN(c2ccc(-c3n[nH]c(=O)c4ccccc34)cc2N)CC1 [3-(4-(2-amino-4-(4-oxo-3,4-dihydrophthalazin-1-yl)phenyl)piperazin-1-yl)propanenitrile]
6.00 to 7.00 | Nc1cc(-c2n[nH]c(=O)c3ccccc23)ccc1N1CCN(CCC(=O)O)CC1 [3-(4-(2-amino-4-(4-oxo-3,4-dihydrophthalazin-1-yl)phenyl)piperazin-1-yl)propanoic acid]
6.00 to 7.00 | CN1CCN(c2ccc(-c3n[nH]c(=O)c4ccccc34)cc2NC(=O)c2cccc(C#N)c2)CC1 [3-cyano-N-(2-(4-methylpiperazin-1-yl)-5-(4-oxo-3,4-dihydrophthalazin-1-yl)phenyl)benzamide]
7.00 to 9.00 | CN1CCC(N2CCN(c3ccc(-c4n[nH]c(=O)c5ccccc45)cc3N)CC2)CC1 [4-(3-amino-4-(4-(1-methylpiperidin-4-yl)piperazin-1-yl)phenyl)phthalazin-1(2H)-one]
6.00 to 7.00 | CN(C)CCN1CCN(c2ccc(-c3n[nH]c(=O)c4ccccc34)cc2N)CC1 [4-(3-amino-4-(4-(2-(dimethylamino)ethyl)piperazin-1-yl)phenyl)phthalazin-1(2H)-one]
5.30 to 6.00 | Nc1ccccc1N1CCN(c2ccc(-c3n[nH]c(=O)c4ccccc34)cc2N)CC1 [4-(3-amino-4-(4-(2-aminophenyl)piperazin-1-yl)phenyl)phthalazin-1(2H)-one]
7.00 to 9.00 | Nc1cc(-c2n[nH]c(=O)c3ccccc23)ccc1N1CCN(CCO)CC1 [4-(3-amino-4-(4-(2-hydroxyethyl)piperazin-1-yl)phenyl)phthalazin-1(2H)-one]
6.00 to 7.00 | COCCN1CCN(c2ccc(-c3n[nH]c(=O)c4ccccc34)cc2N)CC1 [4-(3-amino-4-(4-(2-methoxyethyl)piperazin-1-yl)phenyl)phthalazin-1(2H)-one]
7.00 to 9.00 | Nc1cc(-c2n[nH]c(=O)c3ccccc23)ccc1N1CCN(CCCO)CC1 [4-(3-amino-4-(4-(3-hydroxypropyl)piperazin-1-yl)phenyl)phthalazin-1(2H)-one]
